Several values for one entry are separate records, joined by “and”; a condition that tells them apart may be missing. Equal entries are not always repeated.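 Exposure lasted 48 hours, with cells grown in 96-well plates and compounds tested at five concentrations. The concentration for 50% growth inhibition is given as GI50. TGI is the concentration that stops growth completely.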 A value given as a limit tells only on which side of the number the result lay.

The record followed here is PubChem BioAssay (NCI).

The first assay relates to KM12 colon. The assay is described as follows: NCI anticancer screen, dose series, 48 h.
`COC(=O)c1c(C)cccc1/C=C1\Cc2ccc(C)c(C)c2C1=O` showed a TGI of more than 100 µM.
For the compound `C1CCC(N=C2N(C3CCCCC3)C(=NC3CCCCC3)N2C2CCCCC2)CC1`, the TGI was more than 100 µM.
`O=S(=O)(/N=C(\NO)Nc1ccc(Cl)cc1)c1cc(C(F)(F)F)cc(C(F)(F)F)c1` returned a TGI of 41.1 µM.

Another assay concerns SK-MEL-28 melanoma. Nature of the assay: NCI anticancer screen, dose series, 48 h.
The compound `O=[N+]([O-])c1ccc(/C=N/Nc2nc3ccccc3[nH]2)o1` showed a TGI of 23.8 µM.
Same read-out and setting: to `COC(=O)C1CCC(=O)N1CN(C(C)=O)c1cccc(O)c1` (stereo unspecified) belongs more than 100 µM.
Same read-out and setting: to `O=C(Nn1c(-c2ccccc2)nc2ccccc2c1=O)c1ccc(Cl)cc1` belongs more than 100 µM; to `Cc1nc2sc3cccc(Cl)c3n2c(=O)c1N=Nc1ccc(Cl)cc1`, more than 100 µM.
Same read-out and setting: to `O=C1c2ccccc2N2OC3(N4CCOCC4)CCCC3C12c1ccccc1` (stereo unspecified) belongs more than 100 µM; to `COC(=O)[C@@H]1CO[C@H](C(C)(C)C)N1C(=O)N1C=CC(=O)C[C@H]1C`, more than 100 µM.
As to `COc1cc(C2c3cc4c(cc3OC(NN)C2C)OCO4)cc(OC)c1O` (stereo unspecified), the TGI stood at 33.9 µM.
The same measure, in the same setting: as for `NC1=NC2(COC(c3ccccc3)(c3ccccc3)c3ccccc3)OC(COC(c3ccccc3)(c3ccccc3)c3ccccc3)C(O)C2O1` (stereo unspecified), the figure is more than 100 µM.
In the case of `CC(SC(=S)N1CCOCC1)C(=O)Nc1nnc(-c2ccc(Cl)cc2)o1` (stereo unspecified), the TGI was more than 100 µM.
The compound `CC1(C)O[C@@H]2[C@@H](COC(C)(C)O[C@H]2C2SCCCS2)O1` displayed a TGI of more than 100 µM.
In the case of `O=C(CCc1cc(O)cc(O)c1)NCCc1cc(O)cc(OCc2ccccc2)c1`, the TGI was more than 100 µM.
On the same count and under the same terms, as for `O=C(NCCN(CCNC(=O)c1cccc(O)c1O)CCNC(=O)c1cccc(O)c1O)c1cccc(O)c1O`, the figure is more than 100 µM.
With `O=[N+]([O-])c1cccc2nc3ccccc3c(NCCCCCNc3c4ccccc4nc4cccc([N+](=O)[O-])c34)c12`, the GI50 was 0.0559 µM; the TGI was 0.455 µM and 0.241 µM.
`COC(=O)c1c(C)cccc1/C=C1\Cc2ccc(C)c(C)c2C1=O` yielded a TGI of more than 100 µM.
Same read-out and setting: as for `O=C(c1ccccc1)C1(Br)S(=O)(=O)OCCOS1(=O)=O`, the figure is more than 100 µM; as for `C1CCC(N=C2N(C3CCCCC3)C(=NC3CCCCC3)N2C2CCCCC2)CC1`, more than 100 µM; as for `O=S(=O)(/N=C(\NO)Nc1ccc(Cl)cc1)c1cc(C(F)(F)F)cc(C(F)(F)F)c1`, 39 µM.

The next assay concerns HT29 colon. Nature of the assay: NCI anticancer screen, dose series, 48 h.
As for `COC1(OC)CCc2c(sc3ncnc(Nc4cccc(Br)c4)c23)C1`, the TGI came out at 45.1 µM.
`O=[N+]([O-])c1ccc(/C=N/Nc2nc3ccccc3[nH]2)o1` yielded a TGI of 68 µM.
`COC(=O)C1CCC(=O)N1CN(C(C)=O)c1cccc(O)c1` (stereo unspecified) gave a TGI of more than 100 µM.
Still for that read-out and setting: as for `O=C(Nn1c(-c2ccccc2)nc2ccccc2c1=O)c1ccc(Cl)cc1`, the figure is more than 100 µM; as for `Cc1nc2sc3cccc(Cl)c3n2c(=O)c1N=Nc1ccc(Cl)cc1`, more than 100 µM.
Turning to `O=C1c2ccccc2N2OC3(N4CCOCC4)CCCC3C12c1ccccc1` (stereo unspecified), the TGI was more than 100 µM.
In turn, `COC(=O)[C@@H]1CO[C@H](C(C)(C)C)N1C(=O)N1C=CC(=O)C[C@H]1C` came in with a TGI of more than 100 µM.
Still for that read-out and setting: to `NC1=NC2(COC(c3ccccc3)(c3ccccc3)c3ccccc3)OC(COC(c3ccccc3)(c3ccccc3)c3ccccc3)C(O)C2O1` (stereo unspecified) belongs more than 100 µM; to `CC(SC(=S)N1CCOCC1)C(=O)Nc1nnc(-c2ccc(Cl)cc2)o1` (stereo unspecified), more than 100 µM; to `CC1(C)O[C@@H]2[C@@H](COC(C)(C)O[C@H]2C2SCCCS2)O1`, more than 100 µM.
The compound `O=C(CCc1cc(O)cc(O)c1)NCCc1cc(O)cc(OCc2ccccc2)c1` displayed a TGI of more than 100 µM.
Same read-out and setting: to `O=C(O)CCCc1ccc2c(c1)CC1(C2)Cc2cc3c(cc2C1)CCCC3` belongs 30.4 µM; to `O=C(NCCN(CCNC(=O)c1cccc(O)c1O)CCNC(=O)c1cccc(O)c1O)c1cccc(O)c1O`, more than 100 µM; to `O=[N+]([O-])c1cccc2nc3ccccc3c(NCCCCCNc3c4ccccc4nc4cccc([N+](=O)[O-])c34)c12`, 0.0922 µM.
Compound `COC(=O)c1c(C)cccc1/C=C1\Cc2ccc(C)c(C)c2C1=O` came in with a TGI of more than 100 µM.
For the compound `O=C(c1ccccc1)C1(Br)S(=O)(=O)OCCOS1(=O)=O`, the TGI is more than 100 µM.
`C1CCC(N=C2N(C3CCCCC3)C(=NC3CCCCC3)N2C2CCCCC2)CC1` came in with a TGI of more than 100 µM.
Regarding `O=S(=O)(/N=C(\NO)Nc1ccc(Cl)cc1)c1cc(C(F)(F)F)cc(C(F)(F)F)c1`, the TGI is 34.3 µM.

The subject of the next assay is CAKI-1 renal. The assay is described as follows: NCI anticancer screen, dose series, 48 h.
The compound `COC1(OC)CCc2c(sc3ncnc(Nc4cccc(Br)c4)c23)C1` had a TGI of more than 100 µM.
The compound `O=[N+]([O-])c1ccc(/C=N/Nc2nc3ccccc3[nH]2)o1` showed a TGI of 28.7 µM.
Same read-out and setting: as for `COC(=O)C1CCC(=O)N1CN(C(C)=O)c1cccc(O)c1` (stereo unspecified), the figure is more than 100 µM; as for `Cc1nc2sc3cccc(Cl)c3n2c(=O)c1N=Nc1ccc(Cl)cc1`, more than 100 µM.
As to `COC(=O)[C@@H]1CO[C@H](C(C)(C)C)N1C(=O)N1C=CC(=O)C[C@H]1C`, the TGI was more than 100 µM.
The compound `COc1cc(C2c3cc4c(cc3OC(NN)C2C)OCO4)cc(OC)c1O` (stereo unspecified) gave a TGI of more than 100 µM.
In turn, `NC1=NC2(COC(c3ccccc3)(c3ccccc3)c3ccccc3)OC(COC(c3ccccc3)(c3ccccc3)c3ccccc3)C(O)C2O1` (stereo unspecified) came in with a TGI of more than 100 µM.
On the same count and under the same terms, as for `CC1(C)O[C@@H]2[C@@H](COC(C)(C)O[C@H]2C2SCCCS2)O1`, the figure is more than 100 µM.
On the same count and under the same terms, to `O=C(CCc1cc(O)cc(O)c1)NCCc1cc(O)cc(OCc2ccccc2)c1` belongs more than 100 µM.
Turning to `O=C(NCCN(CCNC(=O)c1cccc(O)c1O)CCNC(=O)c1cccc(O)c1O)c1cccc(O)c1O`, the TGI is more than 100 µM.
With `O=[N+]([O-])c1cccc2nc3ccccc3c(NCCCCCNc3c4ccccc4nc4cccc([N+](=O)[O-])c34)c12`, the GI50 was 0.0199 µM; the TGI is 0.278 µM and 0.0712 µM.
`COC(=O)c1c(C)cccc1/C=C1\Cc2ccc(C)c(C)c2C1=O` yielded a TGI of more than 100 µM.
With `O=S(=O)(/N=C(\NO)Nc1ccc(Cl)cc1)c1cc(C(F)(F)F)cc(C(F)(F)F)c1`, the TGI stood at 32.2 µM.

For a further assay, the system named is CCRF-CEM leukemia. The assay is described as follows: NCI anticancer screen, dose series, 48 h.
`O=[N+]([O-])c1ccc(/C=N/Nc2nc3ccccc3[nH]2)o1` had a TGI of 26.6 µM.
Take `O=C(Nn1c(-c2ccccc2)nc2ccccc2c1=O)c1ccc(Cl)cc1`: the TGI was more than 100 µM.
Same read-out and setting: as for `Cc1nc2sc3cccc(Cl)c3n2c(=O)c1N=Nc1ccc(Cl)cc1`, the figure is more than 100 µM; as for `O=C1c2ccccc2N2OC3(N4CCOCC4)CCCC3C12c1ccccc1` (stereo unspecified), more than 100 µM.
In turn, `COC(=O)[C@@H]1CO[C@H](C(C)(C)C)N1C(=O)N1C=CC(=O)C[C@H]1C` showed a TGI of more than 100 µM.
The same measure, in the same setting: to `NC1=NC2(COC(c3ccccc3)(c3ccccc3)c3ccccc3)OC(COC(c3ccccc3)(c3ccccc3)c3ccccc3)C(O)C2O1` (stereo unspecified) belongs more than 100 µM.
The same measure, in the same setting: as for `O=C(O)CCCc1ccc2c(c1)CC1(C2)Cc2cc3c(cc2C1)CCCC3`, the figure is 27.9 µM; as for `O=C(c1ccccc1)C1(Br)S(=O)(=O)OCCOS1(=O)=O`, more than 100 µM.
Same read-out and setting: as for `C1CCC(N=C2N(C3CCCCC3)C(=NC3CCCCC3)N2C2CCCCC2)CC1`, the figure is more than 100 µM; as for `O=S(=O)(/N=C(\NO)Nc1ccc(Cl)cc1)c1cc(C(F)(F)F)cc(C(F)(F)F)c1`, more than 100 µM.

In another assay the test system is SK-MEL-2 melanoma. Nature of the assay: NCI anticancer screen, dose series, 48 h.
As to `COC1(OC)CCc2c(sc3ncnc(Nc4cccc(Br)c4)c23)C1`, the TGI is more than 100 µM.
On the same count and under the same terms, as for `COC(=O)C1CCC(=O)N1CN(C(C)=O)c1cccc(O)c1` (stereo unspecified), the figure is more than 100 µM; as for `Cc1nc2sc3cccc(Cl)c3n2c(=O)c1N=Nc1ccc(Cl)cc1`, more than 100 µM.
